Values joined by “and” are separate entries in the source; they are usually repeats but may differ in a detail not shown here. Identical values can stand only once. Toxic doses and inconclusive results are not listed. Rule as the data show it: active = T/C of 150% or more; inactive = T/C below 125%.
System: L1210 leukemia ip in BDF1 mice, survival T/C
Assay: NCI In Vivo Anticancer Drug Screen. Data for tumor model L1210 Leukemia (intraperitoneal) in B6D2F1 (BDF1) mice
Details: endpoint: mean survival time, higher = longer survival
Summary of the method: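 Value reflects the ratio of survival in compound-treated mice to survival in vehicle-treated controls, with both groups carrying the same transplanted tumor.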

[1] = dose: 50.0 mg/kg/injection, schedule: Q01DX001 (ip), vehicle: saline
[2] = dose: 100.0 mg/kg/injection, schedule: Q01DX001 (ip), vehicle: saline
[3] = dose: 100.0 mg/kg/injection, schedule: Q01DX009 (ip), vehicle: saline
[4] = dose: 100.0 mg/kg/injection, schedule: Q04DX003 (ip), vehicle: saline
[5] = dose: 25.0 mg/kg/injection, schedule: Q01DX009 (ip), vehicle: Klucel (hydroxypropylcellulose) (HPC)
[6] = dose: 50.0 mg/kg/injection, schedule: Q01DX009 (ip), vehicle: Klucel (hydroxypropylcellulose) (HPC)
[7] = dose: 200.0 mg/kg/injection, schedule: Q04DX003 (ip), vehicle: saline
[8] = dose: 400.0 mg/kg/injection, schedule: Q04DX003 (ip), vehicle: saline
[9] = dose: 50.0 mg/kg/injection, schedule: Q01DX001 (ip), vehicle: carboxymethylcellulose (CMC)
[10] = dose: 100.0 mg/kg/injection, schedule: Q01DX001 (ip), vehicle: carboxymethylcellulose (CMC)
[11] = dose: 200.0 mg/kg/injection, schedule: Q01DX001 (ip), vehicle: carboxymethylcellulose (CMC)
[12] = dose: 400.0 mg/kg/injection, schedule: Q01DX001 (ip), vehicle: carboxymethylcellulose (CMC)
[13] = dose: 200.0 mg/kg/injection, schedule: Q01DX001 (ip), vehicle: saline
[14] = dose: 100.0 mg/kg/injection, schedule: Q01DX009 (ip), vehicle: Klucel (hydroxypropylcellulose) (HPC)

Measured: T/C

C[CH2][Ge]1([CH2]C)[CH2]CC2(CCN(CCCN(C)C)C2)C[CH2]1
inactive: dose: 4.0 mg/kg/injection, schedule: Q01DX009 (ip), vehicle: saline 95 % of control | dose: 8.0 mg/kg/injection, schedule: Q01DX009 (ip), vehicle: saline 104 % of control | dose: 16.0 mg/kg/injection, schedule: Q01DX009 (ip), vehicle: saline 102 % of control | dose: 25.0 mg/kg/injection, schedule: Q01DX001 (ip), vehicle: saline 92 % of control | dose: 25.0 mg/kg/injection, schedule: Q01DX009 (ip), vehicle: saline 104 % of control and 107 % of control | dose: 25.0 mg/kg/injection, schedule: Q04DX002 (ip), vehicle: saline 106 % of control and 111 % of control | dose: 25.0 mg/kg/injection, schedule: Q04DX003 (ip), vehicle: saline 95 % of control | dose: 32.0 mg/kg/injection, schedule: Q01DX009 (ip), vehicle: saline 104 % of control | [1] 96 % of control | dose: 50.0 mg/kg/injection, schedule: Q01DX009 (ip), vehicle: saline 98 % of control and 104 % of control | dose: 50.0 mg/kg/injection, schedule: Q04DX002 (ip), vehicle: saline 98 % of control and 109 % of control | dose: 50.0 mg/kg/injection, schedule: Q04DX003 (ip), vehicle: saline 91 % of control | dose: 64.0 mg/kg/injection, schedule: Q01DX009 (ip), vehicle: saline 104 % of control | [2] 110 % of control | [3] 88 % of control and 91 % of control and 92 % of control | [4] 95 % of control

Nc1cc(C(=O)O)[nH]c(=S)n1
inactive: dose: 100.0 mg/kg/injection, schedule: Q01DX Z (ip), vehicle: methylcellulose (MC) 100 % of control | dose: 200.0 mg/kg/injection, schedule: Q01DX Z (ip), vehicle: methylcellulose (MC) 100 % of control

CC(C)C(C#N)c1ccccc1 (stereo unspecified)
inactive: dose: 12.5 mg/kg/injection, schedule: Q01DX009 (ip), vehicle: Klucel (hydroxypropylcellulose) (HPC) 97 % of control | [5] 100 % of control | dose: 25.0 mg/kg/injection, schedule: Q04DX003 (ip), vehicle: Klucel (hydroxypropylcellulose) (HPC) 96 % of control | [6] 97 % of control | dose: 50.0 mg/kg/injection, schedule: Q04DX003 (ip), vehicle: Klucel (hydroxypropylcellulose) (HPC) 98 % of control

CN(C)c1nnnn1-c1ccccc1
inactive: [4] 100 % of control | [7] 96 % of control | [8] 105 % of control

O=C(O)C1CCCCC1
inactive: [9] 96 % of control | [10] 98 % of control | [11] 104 % of control | [12] 96 % of control

S=c1[nH]n(-c2ccccc2)c(=S)s1
inactive: [2] 100 % of control | [13] 105 % of control

Nc1ccc2c(c1)oc1ccccc12
inactive: dose: 100.0 mg/kg/injection, schedule: Q04DX002 (ip), vehicle: Klucel (hydroxypropylcellulose) (HPC) 107 % of control | dose: 200.0 mg/kg/injection, schedule: Q04DX002 (ip), vehicle: Klucel (hydroxypropylcellulose) (HPC) 103 % of control | dose: 400.0 mg/kg/injection, schedule: Q04DX002 (ip), vehicle: Klucel (hydroxypropylcellulose) (HPC) 110 % of control

[O-][n+]1onc2c(-c3ccccc3)nnc(-c3ccccc3)c21
inactive: dose: 100.0 mg/kg/injection, schedule: Q04DX003 (ip), vehicle: saline with Tween-80 108 % of control | dose: 200.0 mg/kg/injection, schedule: Q04DX003 (ip), vehicle: saline with Tween-80 110 % of control | dose: 400.0 mg/kg/injection, schedule: Q04DX003 (ip), vehicle: saline with Tween-80 111 % of control

O=[N+]([O-])c1ccc(C#[C][Hg][C]#Cc2ccc([N+](=O)[O-])cc2)cc1
inactive: [4] 95 % of control | [7] 91 % of control | [8] 98 % of control

O=C(c1cccs1)C1Cc2ccccc2C1=O (stereo unspecified)
inactive: dose: 100.0 mg/kg/injection, schedule: Q01DX009 (ip), vehicle: saline sonified 98 % of control | dose: 100.0 mg/kg/injection, schedule: Q04DX003 (ip), vehicle: saline sonified 94 % of control | dose: 200.0 mg/kg/injection, schedule: Q01DX009 (ip), vehicle: saline sonified 95 % of control | dose: 200.0 mg/kg/injection, schedule: Q04DX003 (ip), vehicle: saline sonified 92 % of control | dose: 400.0 mg/kg/injection, schedule: Q01DX009 (ip), vehicle: saline sonified 101 % of control | dose: 400.0 mg/kg/injection, schedule: Q04DX003 (ip), vehicle: saline sonified 94 % of control

CC1=NN(c2ccccc2)C(=O)C1
inactive: [1] 94 % of control | dose: 100.0 mg/kg/injection, schedule: Q01DX001 (ip), vehicle: saline with Tween-80 104 % of control | [2] 94 % of control | dose: 200.0 mg/kg/injection, schedule: Q01DX001 (ip), vehicle: saline with Tween-80 101 % of control | [13] 90 % of control | dose: 400.0 mg/kg/injection, schedule: Q01DX001 (ip), vehicle: saline with Tween-80 101 % of control | dose: 400.0 mg/kg/injection, schedule: Q01DX001 (ip), vehicle: saline 102 % of control

CCC(C)Sc1ccc(C)cc1 (stereo unspecified)
inactive: dose: 75.0 mg/kg/injection, schedule: Q01DX009 (ip), vehicle: Klucel (hydroxypropylcellulose) (HPC) 98 % of control | dose: 150.0 mg/kg/injection, schedule: Q01DX009 (ip), vehicle: Klucel (hydroxypropylcellulose) (HPC) 102 % of control | dose: 300.0 mg/kg/injection, schedule: Q01DX009 (ip), vehicle: Klucel (hydroxypropylcellulose) (HPC) 93 % of control

NC(=S)N/N=C/c1cc(-c2cccc(N)c2)ccn1
inactive: dose: 6.25 mg/kg/injection, schedule: Q01DX009 (ip), vehicle: saline with Tween-80 112 % of control | dose: 12.5 mg/kg/injection, schedule: Q01DX009 (ip), vehicle: saline with Tween-80 114 % of control | dose: 25.0 mg/kg/injection, schedule: Q01DX009 (ip), vehicle: saline with Tween-80 114 % of control | dose: 50.0 mg/kg/injection, schedule: Q01DX009 (ip), vehicle: saline with Tween-80 111 % of control | dose: 100.0 mg/kg/injection, schedule: Q01DX009 (ip), vehicle: saline with Tween-80 114 % of control

O=C(O)CC1NCc2cc3ccccc3nc21 (stereo unspecified)
inactive: dose: 10.0 mg/kg/injection, schedule: Q04DX003 (ip), vehicle: alcohol 94 % of control | dose: 20.0 mg/kg/injection, schedule: Q04DX003 (ip), vehicle: alcohol 99 % of control | dose: 40.0 mg/kg/injection, schedule: Q04DX003 (ip), vehicle: alcohol 105 % of control | dose: 80.0 mg/kg/injection, schedule: Q04DX003 (ip), vehicle: alcohol 99 % of control | dose: 160.0 mg/kg/injection, schedule: Q04DX003 (ip), vehicle: alcohol 97 % of control

CC(=O)Nc1ccc(OC(=O)Nc2c(C)cccc2Cl)cc1
inactive: [5] 101 % of control | [6] 95 % of control | [14] 94 % of control and 101 % of control

O=C(O)c1cc(O)cc(O)c1
inactive: [5] 100 % of control | [6] 97 % of control | [14] 100 % of control

CN(C)C(=O)c1cccc(N)c1
inactive: [3] 101 % of control | [4] 103 % of control | dose: 200.0 mg/kg/injection, schedule: Q01DX009 (ip), vehicle: saline 98 % of control | [7] 100 % of control | dose: 400.0 mg/kg/injection, schedule: Q01DX009 (ip), vehicle: saline 90 % of control | [8] 102 % of control

Oc1cccc(/C=N/Nc2nnc(N/N=C/c3cccc(O)c3)c3ccccc23)c1
inactive: [9] 108 % of control | [10] 101 % of control | [11] 98 % of control | [12] 96 % of control

C/C=C/C(=O)Nc1cccc(C(F)(F)F)c1
inactive: dose: 25.0 mg/kg/injection, schedule: Q01DX009 (ip), vehicle: other 92 % of control | dose: 50.0 mg/kg/injection, schedule: Q01DX009 (ip), vehicle: other 102 % of control | dose: 100.0 mg/kg/injection, schedule: Q01DX009 (ip), vehicle: other 92 % of control and 95 % of control

From PubChem BioAssay AID248 (DTP/NCI, 2004)
